Results taken from patent US20060193786A1, “Pharmaceutical composition for intranasal administration containing a CGRP antagonist” (Boehringer Ingelheim Pharma GmbH & Co. KG, priority 2002, published 2006).

Experiment: Stability testing of more highly concentrated nasal spray solutions
Assay type: physicochemical
Details: for content of active substance (A): as free base
Procedure: Stability testing of more highly concentrated nasal spray solutions according to the invention:
The total decomposition which is high in some circumstances (particularly at 40° C.) is based on hydrolysis.
The content of active substance (A) given in Table 1 refers in each case to the free base originally weighed out.

[1] = active substance concentration 15, 3-month value, 25° C.
[2] = active substance concentration 15, 3-month value, 40° C.
[3] = active substance concentration 15, 6-month value, 25° C.
[4] = active substance concentration 15, 6-month value, 40° C.
[5] = active substance concentration 15, 6-week value, 25° C.
[6] = active substance concentration 15, 6-week value, 40° C.
[7] = active substance concentration 15, initial value
[8] = active substance concentration 20%, 3-month value, 25° C.
[9] = active substance concentration 20%, 3-month value, 40° C.
[10] = active substance concentration 20%, 6-month value, 25° C.
[11] = active substance concentration 20%, 6-month value, 40° C.
[12] = active substance concentration 20%, 6-week value, 25° C.
[13] = active substance concentration 20%, 6-week value, 40° C.
[14] = active substance concentration 20%, initial value
[15] = active substance concentration 30%, 3-month value, 25° C.
[16] = active substance concentration 30%, 3-month value, 40° C.
[17] = active substance concentration 30%, 6-month value, 25° C.
[18] = active substance concentration 30%, 6-month value, 40° C.
[19] = active substance concentration 30%, 6-week value, 25° C.
[20] = active substance concentration 30%, 6-week value, 40° C.
[21] = active substance concentration 30%, initial value

**Q.** Which decomposition by oxidation [1] does the source give for `NCCCC[C@H](NC(=O)[C@@H](Cc1cc(Br)c(O)c(Br)c1)NC(=O)N1CCC(N2Cc3ccccc3NC2=O)CC1)C(=O)N1CCN(c2ccncc2)CC1` [(A), 1-[N^2-[3,5-dibromo-N-[[4-(3,4-dihydro-2(1H)-oxoquinazolin-3-yl)-1-piperidinyl]carbonyl]-D-tyrosyl]-L-lysyl]-4-(4-pyridinyl)-piperazine] here?
**A.** 0.64%

**Q.** What about the overall decomposition [1] of the same molecule?
**A.** 1.69%

**Q.** And the “content of active substance (A)” value [1]?
**A.** 147.7 mg/mL

**Q.** And the decomposition by oxidation [2]?
**A.** 0.55%

**Q.** What about the overall decomposition [2] of the same molecule?
**A.** 8.22%

**Q.** And the “content of active substance (A)” value [2]?
**A.** 139.4 mg/mL

**Q.** What about the decomposition by oxidation [3] of the same molecule?
**A.** 0.82%

**Q.** What about the overall decomposition [3] of the same molecule?
**A.** 2.07%

**Q.** And the “content of active substance (A)” value [3]?
**A.** 147.7 mg/mL

**Q.** And the decomposition by oxidation [4]?
**A.** 0.78%

**Q.** What about the overall decomposition [4] of the same molecule?
**A.** 15.33%

**Q.** And the “content of active substance (A)” value [4]?
**A.** 131.7 mg/mL

**Q.** What about the decomposition by oxidation [5] of the same molecule?
**A.** 0.72%

**Q.** What about the overall decomposition [5] of the same molecule?
**A.** 1.60%

**Q.** What about the “content of active substance (A)” value [5] of the same molecule?
**A.** 148.1 mg/mL

**Q.** And the decomposition by oxidation [6]?
**A.** 0.52%

**Q.** And the overall decomposition [6]?
**A.** 4.46%

**Q.** And the “content of active substance (A)” value [6]?
**A.** 142.3 mg/mL

**Q.** And the decomposition by oxidation [7]?
**A.** 0.59%

**Q.** And the overall decomposition [7]?
**A.** 1.23%

**Q.** What about the “content of active substance (A)” value [7] of the same molecule?
**A.** 148.6 mg/mL

**Q.** And the decomposition by oxidation [8]?
**A.** 0.53%

**Q.** What about the overall decomposition [8] of the same molecule?
**A.** 1.50%

**Q.** What about the “content of active substance (A)” value [8] of the same molecule?
**A.** 202.8 mg/mL

**Q.** And the decomposition by oxidation [9]?
**A.** 0.47%

**Q.** What about the overall decomposition [9] of the same molecule?
**A.** 8.23%

**Q.** And the “content of active substance (A)” value [9]?
**A.** 191.4 mg/mL

**Q.** And the decomposition by oxidation [10]?
**A.** 0.77%

**Q.** What about the overall decomposition [10] of the same molecule?
**A.** 1.99%

**Q.** And the content of active substance (A) [10]?
**A.** 202 mg/mL

**Q.** And the decomposition by oxidation [11]?
**A.** 0.74%

**Q.** And the overall decomposition [11]?
**A.** 14.61%

**Q.** What about the “content of active substance (A)” value [11] of the same molecule?
**A.** 182.8 mg/mL

**Q.** And the decomposition by oxidation [12]?
**A.** 0.54%

**Q.** And the overall decomposition [12]?
**A.** 1.09%

**Q.** And the “content of active substance (A)” value [12]?
**A.** 198.7 mg/mL

**Q.** And the decomposition by oxidation [13]?
**A.** 0.55%

**Q.** What about the overall decomposition [13] of the same molecule?
**A.** 3.97%

**Q.** And the “content of active substance (A)” value [13]?
**A.** 192.1 mg/mL

**Q.** And the decomposition by oxidation [14]?
**A.** 0.56%

**Q.** And the overall decomposition [14]?
**A.** 1.27%

**Q.** And the “content of active substance (A)” value [14]?
**A.** 197.9 mg/mL

**Q.** And the decomposition by oxidation [15]?
**A.** 0.60%

**Q.** What about the overall decomposition [15] of the same molecule?
**A.** 1.48%

**Q.** What about the “content of active substance (A)” value [15] of the same molecule?
**A.** 270 mg/mL

**Q.** What about the decomposition by oxidation [16] of the same molecule?
**A.** 0.59%

**Q.** What about the overall decomposition [16] of the same molecule?
**A.** 7.81%

**Q.** What about the “content of active substance (A)” value [16] of the same molecule?
**A.** 260 mg/mL

**Q.** What about the decomposition by oxidation [17] of the same molecule?
**A.** 0.91%

**Q.** And the overall decomposition [17]?
**A.** 2.04%

**Q.** And the “content of active substance (A)” value [17]?
**A.** 273 mg/mL

**Q.** What about the decomposition by oxidation [18] of the same molecule?
**A.** 0.84%

**Q.** And the overall decomposition [18]?
**A.** 13.36%

**Q.** And the “content of active substance (A)” value [18]?
**A.** 246 mg/mL

**Q.** And the decomposition by oxidation [19]?
**A.** 0.62%

**Q.** And the overall decomposition [19]?
**A.** 1.19%

**Q.** What about the “content of active substance (A)” value [19] of the same molecule?
**A.** 264 mg/mL

**Q.** And the decomposition by oxidation [20]?
**A.** 0.58%

**Q.** What about the overall decomposition [20] of the same molecule?
**A.** 3.95%

**Q.** What about the “content of active substance (A)” value [20] of the same molecule?
**A.** 260 mg/mL

**Q.** What about the decomposition by oxidation [21] of the same molecule?
**A.** 0.56%

**Q.** And the overall decomposition [21]?
**A.** 1.20%

**Q.** And the “content of active substance (A)” value [21]?
**A.** 269 mg/mL

**Q.** What about the oxidative decomposition (hydrochloride in aqueous solution, over a long period) of the same molecule?
**A.** virtually unchanged or increases only slightly
